Test results reported in patent publication US11028079B2 (ConverGene LLC, priority 2015, dated 2021).

Biological target: T1, BRD4 bromodomains (Homo sapiens, UniProt O60885)
T1 construct: fused on or other part: T7 phage capsid protein (phage-display fusion; the phage DNA is read out by qPCR)
Test: BROMOscan bromodomain competition binding assay (DiscoveRx)
Conditions: Kd from 11 compound concentrations ranging from 0 to 10 μM, read-out: BROMOscan Relative Activity
Outline: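 Compounds in 0.1% DMSO/0.9% MEG competed with a solid-phase acetylated peptide for T7 phage-fused BRD4 bromodomains, with the retained bromodomain measured by qPCR.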

Row | Kd [nM] | Compound
1 | < 500 | Cc1noc(C)c1-c1ccc2nc(-c3cnn(CC(N)=O)c3)nc(NCc3cccc(Cl)c3)c2c1 [Example 50, 2-(4-(4-((3-chlorobenzyl)amino)-6-(3,5-dimethylisoxazol-4-yl)quinazolin-2-yl)-1H-pyrazol-1-yl)acetamide]
2 | < 500 | Cc1noc(C)c1-c1ccc2nc(N3CCN(CCN(C)C)CC3)nc(NCc3ccccc3)c2c1 [Example 92, N-benzyl-2-(4-(2-(dimethylamino)ethyl)piperazin-1-yl)-6-(3,5-dimethylisoxazol-4-yl)quinazolin-4-amine]
3 | 500 to 5000 | Cc1noc(C)c1-c1ccc2nc(N3CCN(CC(C)(C)O)CC3)nc(NCc3cccc(Cl)c3)c2c1 [Example 137, 1-(4-(4-((3-chlorobenzyl)amino)-6-(3,5-dimethylisoxazol-4-yl)quinazolin-2-yl)piperazin-1-yl)-2-methylpropan-2-ol]
4 | 500 to 5000 | Cc1cc(NCc2cccc(Cl)c2)c2cc(-c3c(C)noc3C)ccc2n1 [Example 4, N-(3-chlorobenzyl)-6-(3,5-dimethylisoxazol-4-yl)-2-methylquinolin-4-amine]
5 | < 500 | Cc1noc(C)c1-c1ccc2nc(C(=O)NC3CCOCC3)nc(NCc3cncc(Cl)c3)c2c1 [Example 229, 4-(((5-chloropyridin-3-yl)methyl)amino)-6-(3,5-dimethylisoxazol-4-yl)-N-(tetrahydro-2H-pyran-4-yl)quinazoline-2-carboxamide]
6 | 500 to 5000 | Cc1noc(C)c1-c1ccc2nc(-c3cnn(CCO)c3)nc(Nc3ccc(Cl)cc3)c2c1 [Example 150, 2-(4-(4-((4-chlorophenyl)amino)-6-(3,5-dimethylisoxazol-4-yl)quinazolin-2-yl)-1H-pyrazol-1-yl)ethanol]
7 | > 5000 | CN(C)CCN1CCN(c2nc(NCc3cccc(Cl)c3)c3cc(-c4ccnc(O)c4)ccc3n2)CC1 [Example 96, 4-(4-((3-chlorobenzyl)amino)-2-(4-(2-(dimethylamino)ethyl)piperazin-1-yl)quinazolin-6-yl)pyridin-2-ol]
8 | < 500 | CNC(=O)C1CCN(c2nc(N3CCN(CCN(C)C)CC3)nc3ccc(-c4c(C)noc4C)cc23)CC1 [Example 267, 1-(2-(4-(2-(dimethylamino)ethyl)piperazin-1-yl)-6-(3,5-dimethylisoxazol-4-yl)quinazolin-4-yl)-N-methylpiperidine-4-carboxamide]
9 | < 500 | CC(=O)N1CCN(c2nc(NCc3cccc(Cl)c3)c3cc(-c4c(C)noc4C)ccc3n2)CC1 [Example 184, 1-(4-(4-((3-chlorobenzyl)amino)-6-(3,5-dimethylisoxazol-4-yl)quinazolin-2-yl)piperazin-1-yl)ethanone]
10 | < 500 | Cc1noc(C)c1-c1ccc2nc(N3CCS(=O)(=O)CC3)nc(NCc3cncc(Cl)c3)c2c1 [Example 241, 4-(4-(((5-chloropyridin-3-yl)methyl)amino)-6-(3,5-dimethylisoxazol-4-yl)quinazolin-2-yl)thiomorpholine 1,1-dioxide]
11 | < 500 | Cc1noc(C)c1-c1ccc2nc(N3CCN(CC(=O)N(C)C)CC3)nc(NCc3cccc(Cl)c3)c2c1 [Example 52, 2-(4-(4-((3-chlorobenzyl)amino)-6-(3,5-dimethylisoxazol-4-yl)quinazolin-2-yl)piperazin-1-yl)-N,N-dimethylacetamide]
12 | < 500 | Cc1noc(C)c1-c1ccc2nc(C(=O)NC3CCS(=O)(=O)CC3)nc(N3CCOC[C@@H]3c3ccccc3)c2c1 [Example 275, (S)-6-(3,5-dimethylisoxazol-4-yl)-N-(1,1-dioxidotetrahydro-2H-thiopyran-4-yl)-4-(3-phenylmorpholino)quinazoline-2-carboxamide]
13 | < 500 | Cc1noc(C)c1-c1ccc2nc(C(=O)NCc3ccc(Cl)nc3)nc(NCc3cccc(Cl)c3)c2c1 [Example 203, 4-((3-chlorobenzyl)amino)-N-((6-chloropyridin-3-yl)methyl)-6-(3,5-dimethylisoxazol-4-yl)quinazoline-2-carboxamide]
14 | 500 to 5000 | Cc1noc(C)c1-c1ccc2nc(-c3c(C)noc3C)nc(NCc3cccc(Cl)c3)c2c1 [Example 70, N-(3-chlorobenzyl)-2,6-bis(3,5-dimethylisoxazol-4-yl)quinazolin-4-amine]
15 | 500 to 5000 | Cc1noc(C)c1-c1ccc2nc(N3CCN(CCN(C)C)CC3)nc(O)c2c1 [Example 68, 2-(4-(2-(dimethylamino)ethyl)piperazin-1-yl)-6-(3,5-dimethylisoxazol-4-yl)quinazolin-4-ol]
16 | < 500 | Cc1noc(C)c1-c1ccc2nc(-c3cnn(CC(C)(C)O)c3)nc(NCc3cccc(Cl)c3)c2c1 [Example 56, 1-(4-(4-((3-chlorobenzyl)amino)-6-(3,5-dimethylisoxazol-4-yl)quinazolin-2-yl)-1H-pyrazol-1-yl)-2-methylpropan-2-ol]
17 | < 500 | Cn1cc(-c2ccc3nc(N4CCN(CC(C)(C)O)CC4)nc(NCc4cncc(Cl)c4)c3c2)ccc1=O [Example 135, 5-(4-(((5-chloropyridin-3-yl)methyl)amino)-2-(4-(2-hydroxy-2-methylpropyl)piperazin-1-yl)quinazolin-6-yl)-1-methylpyridin-2(1H)-one]

Row | Kd [nM] | Compound
18 | < 500 | COc1cccc(CNc2nc(N3CCN(CCN(C)C)CC3)nc3ccc(-c4c(C)noc4C)cc23)c1 [Example 73, 2-(4-(2-(dimethylamino)ethyl)piperazin-1-yl)-6-(3,5-dimethylisoxazol-4-yl)-N-(3-methoxybenzyl)quinazolin-4-amine]
19 | < 500 | Cc1noc(C)c1-c1ccc2nc(C(=O)NC3CCN(C)CC3)nc(NCc3cccc(Cl)c3)c2c1 [Example 172, 4-((3-chlorobenzyl)amino)-6-(3,5-dimethylisoxazol-4-yl)-N-(1-methylpiperidin-4-yl)quinazoline-2-carboxamide]
20 | < 500 | Cc1noc(C)c1-c1ccc2nc(N3CCN(CCN(C)C)CC3)nc(NCc3cccc(Cl)c3)c2c1 [Example 12, N-(3-chlorobenzyl)-2-(4-(2-(dimethylamino)ethyl)piperazin-1-yl)-6-(3,5-dimethylisoxazol-4-yl)quinazolin-4-amine]
21 | < 500 | Cc1noc(C)c1-c1ccc2nc(N3CCN(C[C@H](C)O)CC3)nc(N3CCOC[C@@H]3c3ccccc3)c2c1 [Example 308, (S)-1-(4-(6-(3,5-dimethylisoxazol-4-yl)-4-((S)-3-phenylmorpholino)quinazolin-2-yl)piperazin-1-yl)propan-2-ol]
22 | < 500 | CNC(=O)Cn1cc(-c2nc(NC3(c4cccc(Cl)c4)CC3)c3cc(-c4c(C)noc4C)ccc3n2)cn1 [Example 181, 2-(4-(4-((1-(3-chlorophenyl)cyclopropyl)amino)-6-(3,5-dimethylisoxazol-4-yl)quinazolin-2-yl)-1H-pyrazol-1-yl)-N-methylacetamide]
23 | 500 to 5000 | Cc1noc(C)c1-c1ccc2nc(C(=O)Nc3cncc(F)c3)nc(NCc3cccc(Cl)c3)c2c1 [Example 221, 4-((3-chlorobenzyl)amino)-6-(3,5-dimethylisoxazol-4-yl)-N-(5-fluoropyridin-3-yl)quinazoline-2-carboxamide]
24 | < 500 | CN(C)CCCN1CCN(c2nc(NCc3cccc(Cl)c3)c3cc(-c4ccc(=O)n(C)c4)ccc3n2)CC1 [Example 123, 5-(4-((3-chlorobenzyl)amino)-2-(4-(3-(dimethylamino)propyl)piperazin-1-yl)quinazolin-6-yl)-1-methylpyridin-2(1H)-one]
25 | < 500 | CNC(=O)CN1CCN(c2nc(NCc3cncc(Cl)c3)c3cc(-c4ccc(=O)n(C)c4)ccc3n2)CC1 [Example 128, 2-(4-(4-(((5-chloropyridin-3-yl)methyl)amino)-6-(1-methyl-6-oxo-1,6-dihydropyridin-3-yl)quinazolin-2-yl)piperazin-1-yl)-N-methylacetamide]
26 | < 500 | Cc1noc(C)c1-c1ccc2nc(C(=O)O)nc(NCc3cccc(Cl)c3)c2c1 [Example 163, 4-((3-chlorobenzyl)amino)-6-(3,5-dimethylisoxazol-4-yl)quinazoline-2-carboxylic acid]
27 | 500 to 5000 | Cc1oncc1-c1ccc2nc(N3CCN(CCN(C)C)CC3)nc(NCc3cccc(Cl)c3)c2c1 [Example 78, N-(3-chlorobenzyl)-2-(4-(2-(dimethylamino)ethyl)piperazin-1-yl)-6-(5-methylisoxazol-4-yl)quinazolin-4-amine]
28 | < 500 | Cc1nn(C)cc1CNC(=O)c1nc(N2CCOC[C@@H]2c2ccccc2)c2cc(-c3c(C)noc3C)ccc2n1 [Example 281, (S)—N-((1,3-dimethyl-1H-pyrazol-4-yl)methyl)-6-(3,5-dimethylisoxazol-4-yl)-4-(3-phenylmorpholino)quinazoline-2-carboxamide]
29 | < 500 | Cc1noc(C)c1-c1ccc2nc(N3CCN(C(=O)c4ccncc4)CC3)nc(NCc3cccc(Cl)c3)c2c1 [Example 29, (4-(4-((3-chlorobenzyl)amino)-6-(3,5-dimethylisoxazol-4-yl)quinazolin-2-yl)piperazin-1-yl)(pyridin-4-yl)methanone]
30 | < 500 | Cc1noc(C)c1-c1ccc2nc(N3CCc4c(cnn4C)C3)nc(N3CCOC[C@@H]3c3ccccc3)c2c1 [Example 289, (S)-4-(6-(3,5-dimethylisoxazol-4-yl)-2-(1-methyl-1,4,6,7-tetrahydro-5H-pyrazolo[4,3-c]pyridin-5-yl)quinazolin-4-yl)-3-phenylmorpholine]
31 | < 500 | Cc1noc(C)c1-c1ccc2nc(NCCCO)nc(NCc3cccc(Cl)c3)c2c1 [Example 13, 3-((4-((3-chlorobenzyl)amino)-6-(3,5-dimethylisoxazol-4-yl)quinazolin-2-yl)amino)propan-1-ol]
32 | < 500 | Cc1noc(C)c1-c1ccc2nc(N3CCN(CC(C)(C)O)CC3)nc(NCc3cncc(Cl)c3)c2c1 [Example 136, 1-(4-(4-(((5-chloropyridin-3-yl)methyl)amino)-6-(3,5-dimethylisoxazol-4-yl)quinazolin-2-yl)piperazin-1-yl)-2-methylpropan-2-ol]
33 | < 500 | Cc1noc(C)c1-c1ccc2nc(N3CCN(CCN(C)C)CC3)nc(NCc3ccccc3F)c2c1 [Example 76, 2-(4-(2-(dimethylamino)ethyl)piperazin-1-yl)-6-(3,5-dimethylisoxazol-4-yl)-N-(2-fluorobenzyl)quinazolin-4-amine]
